# Test results reported in ChEMBL document CHEMBL1201862, “PubChem BioAssay data set” (2004).
# Where a name gives a salt, the structure may show the parent alone. Activity calls are given as the source filed them.
# Assays:
# [1] = OVCAR-3 cell viability loss – plate reader, dry powder samples, PAX8 inhibitor project, dose response (AID 743044); type: functional, cell-based
# Paired box protein Pax-8 = Paired box protein Pax-8 (Homo sapiens, UniProt Q06710); test: PAX8 transcriptional activity inhibition in RMG-I – RMG-I cells, luciferase, cherry-pick, dose response (AID 687027); type: functional, cell-based;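 further: luciferase reporter driven by Pax8 target thyroperoxidase promoter measured by SteadyGlo luminescence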
# Paired box protein Pax-8, sequence (Q06710 whole entry): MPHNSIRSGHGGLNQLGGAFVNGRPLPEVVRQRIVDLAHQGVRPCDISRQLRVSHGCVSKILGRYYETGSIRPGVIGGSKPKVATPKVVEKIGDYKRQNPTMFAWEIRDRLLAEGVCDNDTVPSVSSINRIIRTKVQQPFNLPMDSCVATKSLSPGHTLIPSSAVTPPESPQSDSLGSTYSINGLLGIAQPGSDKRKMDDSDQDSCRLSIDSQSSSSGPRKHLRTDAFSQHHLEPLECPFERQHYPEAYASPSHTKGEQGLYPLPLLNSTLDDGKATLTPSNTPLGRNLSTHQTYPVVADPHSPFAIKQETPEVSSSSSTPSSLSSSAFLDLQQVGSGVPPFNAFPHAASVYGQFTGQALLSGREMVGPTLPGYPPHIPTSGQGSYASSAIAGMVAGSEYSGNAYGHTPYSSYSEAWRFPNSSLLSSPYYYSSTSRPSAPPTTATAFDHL
# [2] = OVCAR8 cell viability loss – plate reader, dry powder samples, PAX8 project, dose response (AID 743197); type: functional, cell-based; settings: OVCAR-8
# Caspase-6 = target: T1, Caspase-6 (Homo sapiens, UniProt P55212); test: inhibition of CASP6 peptide cleavage – biochemical, VEID-R110 fluorescence, cherry-pick, dose response (AID 720632)
# T1 sequence (P55212 whole entry): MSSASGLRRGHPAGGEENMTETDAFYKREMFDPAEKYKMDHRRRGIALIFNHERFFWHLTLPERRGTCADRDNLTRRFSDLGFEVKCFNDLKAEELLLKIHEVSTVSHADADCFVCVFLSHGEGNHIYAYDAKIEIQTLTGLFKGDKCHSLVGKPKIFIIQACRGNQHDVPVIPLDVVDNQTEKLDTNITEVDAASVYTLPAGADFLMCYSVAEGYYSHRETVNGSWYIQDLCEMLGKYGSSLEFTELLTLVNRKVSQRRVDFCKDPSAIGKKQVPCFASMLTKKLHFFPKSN
# Large T antigen = Large T antigen (Simian virus 40, UniProt P03070); type: functional, Betapolyomavirus macacae;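 further: Confirmatory-stage PubChem screen for compounds that inhibit SV40 T antigen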
# Large T antigen, sequence (P03070 whole entry): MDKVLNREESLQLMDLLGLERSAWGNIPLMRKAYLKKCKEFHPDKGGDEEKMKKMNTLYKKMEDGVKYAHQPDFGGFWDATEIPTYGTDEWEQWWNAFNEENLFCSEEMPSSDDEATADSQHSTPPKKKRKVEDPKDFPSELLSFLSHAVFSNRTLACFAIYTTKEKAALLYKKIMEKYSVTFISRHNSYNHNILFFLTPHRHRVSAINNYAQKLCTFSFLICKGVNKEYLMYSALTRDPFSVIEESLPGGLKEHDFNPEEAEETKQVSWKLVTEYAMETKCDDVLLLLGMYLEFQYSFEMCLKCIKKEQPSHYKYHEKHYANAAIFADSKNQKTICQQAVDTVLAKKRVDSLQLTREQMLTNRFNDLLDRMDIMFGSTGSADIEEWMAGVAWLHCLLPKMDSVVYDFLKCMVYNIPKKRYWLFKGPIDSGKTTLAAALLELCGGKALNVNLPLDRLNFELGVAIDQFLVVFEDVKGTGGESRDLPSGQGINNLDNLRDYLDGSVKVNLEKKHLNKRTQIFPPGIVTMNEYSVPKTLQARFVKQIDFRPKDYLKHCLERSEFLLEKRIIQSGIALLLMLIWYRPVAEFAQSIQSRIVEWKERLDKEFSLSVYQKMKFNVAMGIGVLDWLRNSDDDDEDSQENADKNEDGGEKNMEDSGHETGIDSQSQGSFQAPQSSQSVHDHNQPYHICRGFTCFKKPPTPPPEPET
# [3] = target: T2, Histone-lysine N-methyltransferase NSD2 (Homo sapiens, UniProt O96028); type: biochemical
# T2 sequence (O96028 whole entry): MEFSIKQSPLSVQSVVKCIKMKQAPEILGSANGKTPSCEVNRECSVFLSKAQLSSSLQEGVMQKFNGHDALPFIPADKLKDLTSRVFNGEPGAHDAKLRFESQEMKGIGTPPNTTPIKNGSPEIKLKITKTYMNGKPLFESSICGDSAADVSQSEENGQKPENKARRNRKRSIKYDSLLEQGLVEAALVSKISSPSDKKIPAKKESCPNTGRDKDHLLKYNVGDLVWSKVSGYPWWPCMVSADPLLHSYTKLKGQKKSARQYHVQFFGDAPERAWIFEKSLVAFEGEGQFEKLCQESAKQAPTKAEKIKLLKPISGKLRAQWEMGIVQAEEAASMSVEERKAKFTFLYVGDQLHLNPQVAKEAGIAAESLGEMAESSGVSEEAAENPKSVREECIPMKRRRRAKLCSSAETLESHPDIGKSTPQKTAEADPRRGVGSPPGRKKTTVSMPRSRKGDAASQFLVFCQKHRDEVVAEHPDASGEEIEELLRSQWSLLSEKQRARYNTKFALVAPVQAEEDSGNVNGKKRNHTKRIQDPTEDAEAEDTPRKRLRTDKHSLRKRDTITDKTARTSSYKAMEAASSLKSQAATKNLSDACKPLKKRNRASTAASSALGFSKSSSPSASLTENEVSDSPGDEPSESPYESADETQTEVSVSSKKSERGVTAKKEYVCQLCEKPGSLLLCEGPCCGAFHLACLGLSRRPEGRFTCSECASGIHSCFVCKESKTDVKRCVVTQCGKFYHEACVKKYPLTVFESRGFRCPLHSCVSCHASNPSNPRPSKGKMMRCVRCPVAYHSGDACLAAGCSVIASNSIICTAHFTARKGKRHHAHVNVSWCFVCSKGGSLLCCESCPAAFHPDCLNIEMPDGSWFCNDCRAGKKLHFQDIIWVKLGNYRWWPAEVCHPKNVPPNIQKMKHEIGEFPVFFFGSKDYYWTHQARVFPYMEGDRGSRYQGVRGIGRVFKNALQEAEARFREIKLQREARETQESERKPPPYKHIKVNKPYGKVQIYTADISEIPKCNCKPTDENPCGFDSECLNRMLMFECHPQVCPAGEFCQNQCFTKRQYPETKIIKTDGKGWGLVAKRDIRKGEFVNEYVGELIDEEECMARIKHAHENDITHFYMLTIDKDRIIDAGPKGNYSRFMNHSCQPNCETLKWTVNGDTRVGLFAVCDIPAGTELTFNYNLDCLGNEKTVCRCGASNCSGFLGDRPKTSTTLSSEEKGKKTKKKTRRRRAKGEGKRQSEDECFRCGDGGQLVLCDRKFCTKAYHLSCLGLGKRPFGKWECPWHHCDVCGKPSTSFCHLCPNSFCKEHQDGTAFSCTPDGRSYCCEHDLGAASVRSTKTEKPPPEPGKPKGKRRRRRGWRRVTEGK
# Genome polyprotein = Genome polyprotein (dengue virus type 2, UniProt P29990); test: flavivirus cap methylation enzyme inhibition – biochemical, confirmation dose response, primary screen (AID 588689); type: functional
# Genome polyprotein, sequence (P29990 2492-3391 limits assumed): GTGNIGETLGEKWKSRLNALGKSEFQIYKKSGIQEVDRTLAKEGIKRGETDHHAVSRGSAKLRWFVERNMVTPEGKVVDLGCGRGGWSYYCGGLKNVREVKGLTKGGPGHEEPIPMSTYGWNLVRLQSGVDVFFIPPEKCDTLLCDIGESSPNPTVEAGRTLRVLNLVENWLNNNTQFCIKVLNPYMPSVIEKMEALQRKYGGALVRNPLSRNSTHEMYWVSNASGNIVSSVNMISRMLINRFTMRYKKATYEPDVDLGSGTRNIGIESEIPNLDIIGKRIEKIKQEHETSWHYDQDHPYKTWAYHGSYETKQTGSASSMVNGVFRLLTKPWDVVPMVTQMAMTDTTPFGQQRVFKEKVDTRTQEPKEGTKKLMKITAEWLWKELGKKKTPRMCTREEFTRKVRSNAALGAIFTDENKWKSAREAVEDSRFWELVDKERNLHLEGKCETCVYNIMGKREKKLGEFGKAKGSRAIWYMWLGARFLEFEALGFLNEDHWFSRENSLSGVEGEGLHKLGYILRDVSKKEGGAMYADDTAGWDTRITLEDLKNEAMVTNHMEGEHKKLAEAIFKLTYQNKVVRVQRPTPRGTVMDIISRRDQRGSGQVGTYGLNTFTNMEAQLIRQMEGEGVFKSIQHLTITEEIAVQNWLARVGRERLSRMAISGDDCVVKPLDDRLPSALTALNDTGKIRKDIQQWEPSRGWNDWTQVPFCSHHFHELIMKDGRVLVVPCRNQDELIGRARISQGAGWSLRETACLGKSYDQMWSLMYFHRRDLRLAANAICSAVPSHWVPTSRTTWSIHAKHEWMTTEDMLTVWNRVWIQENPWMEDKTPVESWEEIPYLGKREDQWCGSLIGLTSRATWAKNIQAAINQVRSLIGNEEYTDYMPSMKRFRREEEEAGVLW
# [4] = target: Glucose-6-phosphate 1-dehydrogenase (Homo sapiens, UniProt P11413); test: inhibition of Homo sapiens G6PD, dose series – biochemical, fluorescence, selectivity assay for P. falciparum G6PD inhibitor project, dose response (AID 504792); type: functional
# Glucose-6-phosphate 1-dehydrogenase, sequence (P11413 whole entry): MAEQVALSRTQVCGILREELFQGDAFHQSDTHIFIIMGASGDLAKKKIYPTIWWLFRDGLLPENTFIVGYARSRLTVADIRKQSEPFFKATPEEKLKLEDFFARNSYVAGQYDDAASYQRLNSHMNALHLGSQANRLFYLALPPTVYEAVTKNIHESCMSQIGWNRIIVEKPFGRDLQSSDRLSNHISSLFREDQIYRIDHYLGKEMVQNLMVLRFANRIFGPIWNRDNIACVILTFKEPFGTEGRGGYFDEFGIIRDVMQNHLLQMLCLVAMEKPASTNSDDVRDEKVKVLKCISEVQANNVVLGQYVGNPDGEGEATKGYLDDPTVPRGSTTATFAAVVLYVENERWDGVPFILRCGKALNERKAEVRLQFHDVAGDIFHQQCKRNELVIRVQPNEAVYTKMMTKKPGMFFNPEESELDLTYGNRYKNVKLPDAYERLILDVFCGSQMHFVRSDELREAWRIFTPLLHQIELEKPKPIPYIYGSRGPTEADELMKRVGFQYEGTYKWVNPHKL
# [5] = Luminescence-based cell-based high throughput dose response assay to identify activators of the DAF-12 from the parasite S. stercoralis (ssDAF-12).; type: functional
# [6] = target: T3, Oxysterols receptor LXR-beta (Homo sapiens, UniProt P55055); test: LXR agonists, Gal4 luciferase reporter, dose response, counter-screen for ssDAF-12 agonist project, cell-based, luminescence, HEK293, S. stercoralis campaign (AID 720737); type: functional; settings: read-out: IC50 (the source's name)
# T3 sequence (P55055 whole entry): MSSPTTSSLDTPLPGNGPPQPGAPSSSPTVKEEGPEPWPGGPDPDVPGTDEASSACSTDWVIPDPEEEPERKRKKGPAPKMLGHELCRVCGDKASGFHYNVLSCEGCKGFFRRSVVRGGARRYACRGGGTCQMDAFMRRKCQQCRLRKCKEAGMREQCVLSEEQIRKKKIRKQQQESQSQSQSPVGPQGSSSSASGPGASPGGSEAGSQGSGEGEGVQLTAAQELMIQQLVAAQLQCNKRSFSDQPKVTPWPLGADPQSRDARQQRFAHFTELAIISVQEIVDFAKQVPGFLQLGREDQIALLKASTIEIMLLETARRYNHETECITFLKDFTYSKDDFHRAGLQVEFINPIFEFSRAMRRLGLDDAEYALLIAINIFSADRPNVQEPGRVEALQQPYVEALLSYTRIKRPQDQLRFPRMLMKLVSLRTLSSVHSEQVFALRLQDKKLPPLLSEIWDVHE
# [7] = target: T3, Oxysterols receptor LXR-beta; type: functional, cell-based
# Protein skinhead-1 = target: T4, Protein skinhead-1 (Caenorhabditis elegans, UniProt P34707); type: functional
# T4 sequence (P34707 whole entry): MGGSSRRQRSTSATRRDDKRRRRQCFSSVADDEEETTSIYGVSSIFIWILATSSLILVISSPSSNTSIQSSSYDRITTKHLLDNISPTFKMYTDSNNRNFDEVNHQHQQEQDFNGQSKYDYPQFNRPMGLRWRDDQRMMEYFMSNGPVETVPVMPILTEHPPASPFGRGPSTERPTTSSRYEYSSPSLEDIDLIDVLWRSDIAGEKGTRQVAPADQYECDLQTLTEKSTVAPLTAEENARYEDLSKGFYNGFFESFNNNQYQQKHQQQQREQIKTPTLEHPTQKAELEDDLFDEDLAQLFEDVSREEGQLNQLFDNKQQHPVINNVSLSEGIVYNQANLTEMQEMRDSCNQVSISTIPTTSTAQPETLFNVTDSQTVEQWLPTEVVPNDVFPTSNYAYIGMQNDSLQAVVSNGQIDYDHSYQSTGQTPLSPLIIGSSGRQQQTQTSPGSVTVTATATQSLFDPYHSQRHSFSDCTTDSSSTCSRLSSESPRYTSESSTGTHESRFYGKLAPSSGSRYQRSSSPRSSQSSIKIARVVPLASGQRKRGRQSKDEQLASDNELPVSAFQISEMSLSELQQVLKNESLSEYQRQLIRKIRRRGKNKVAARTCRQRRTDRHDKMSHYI
# Protein Tat = target: T5, Protein Tat (Human immunodeficiency virus type 1 group M subtype B (isolate HXB2)(HIV-1), UniProt P04608); type: functional;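 further: tat binding to TAR RNA read out by fluorescence polarization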
# T5 sequence (P04608 whole entry): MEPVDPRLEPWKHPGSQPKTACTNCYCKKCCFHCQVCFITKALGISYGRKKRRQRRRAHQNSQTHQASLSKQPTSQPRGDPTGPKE
# [8] = viability loss in THP-1 monocytes – THP-1 cells, cytotoxicity control for Vif-APOBEC3G degradation inhibitor project, dose response (AID 1117359); type: functional; settings: THP-1
# Streptokinase A = target: T6, Streptokinase A (Streptococcus pyogenes serotype M1, UniProt P10520); test: viability-normalized secreted streptokinase activity reduction – plasminogen activation absorbance, OD405, dose response (AID 1914); type: functional, Streptococcus pyogenes M1 GAS;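 further: secreted streptokinase activity via plasminogen activation per viability signal from cell pellet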
# T6 sequence (P10520 whole entry): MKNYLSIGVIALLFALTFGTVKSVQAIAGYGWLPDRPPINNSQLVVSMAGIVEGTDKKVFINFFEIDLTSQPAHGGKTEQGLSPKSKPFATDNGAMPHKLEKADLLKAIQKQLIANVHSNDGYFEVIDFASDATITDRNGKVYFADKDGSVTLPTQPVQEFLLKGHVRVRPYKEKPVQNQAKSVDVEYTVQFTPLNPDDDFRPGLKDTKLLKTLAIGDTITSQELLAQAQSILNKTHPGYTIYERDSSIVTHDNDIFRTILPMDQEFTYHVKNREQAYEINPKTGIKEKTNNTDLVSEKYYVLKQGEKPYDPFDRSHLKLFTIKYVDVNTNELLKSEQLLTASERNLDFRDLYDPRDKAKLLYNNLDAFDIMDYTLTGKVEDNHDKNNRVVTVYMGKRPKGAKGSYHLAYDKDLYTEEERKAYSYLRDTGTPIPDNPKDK
# [9] = fluconazole-exposed Candida albicans growth modulators – fluorescence, retest, confirmation (AID 2467); type: functional, cell-based
# [10] = target: T7, Heat shock factor protein 1 (Mus musculus, UniProt P38532); test: decrease of HSF1-responsive luciferase luminescence – cell-based, NIH3T3, dose retest, confirmation (AID 2382); type: functional;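 further: NIH3T3 fibroblasts with HSF1-driven luciferase reporter stressed by proteasome inhibitor MG132; luminescence from HSF1-driven luciferase expression after 8 hours of MG132 stress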
# T7 sequence (P38532 whole entry): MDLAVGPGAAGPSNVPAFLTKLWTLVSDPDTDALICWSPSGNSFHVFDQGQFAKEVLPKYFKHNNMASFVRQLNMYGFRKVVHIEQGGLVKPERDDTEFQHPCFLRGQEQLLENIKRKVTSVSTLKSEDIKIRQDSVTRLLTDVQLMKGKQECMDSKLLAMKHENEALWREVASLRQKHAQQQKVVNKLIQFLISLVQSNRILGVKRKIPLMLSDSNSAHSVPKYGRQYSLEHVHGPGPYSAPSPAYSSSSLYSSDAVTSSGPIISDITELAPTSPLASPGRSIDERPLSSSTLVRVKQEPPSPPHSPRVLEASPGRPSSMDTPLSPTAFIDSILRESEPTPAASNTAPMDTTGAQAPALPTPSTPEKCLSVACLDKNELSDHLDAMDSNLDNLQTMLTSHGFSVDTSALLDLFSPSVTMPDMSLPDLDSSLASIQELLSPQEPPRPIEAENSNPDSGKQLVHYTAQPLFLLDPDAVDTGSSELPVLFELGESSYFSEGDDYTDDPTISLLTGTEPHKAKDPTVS
# Streptococcus = test: GAS UMAA2166 growth inhibition – luminescence, BacTiterGlo, counter-screen for streptokinase expression inhibitor project, dose response (AID 1915); type: functional, organism-based;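 further: potency for reduction of bacterial viability or growth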
# [11] = NIH-3T3 fibroblast cytotoxicity, dose response, cytotoxicity control, cell-based, fluorescence, Alamar Blue, secondary assay (AID 2327); type: functional;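 further: NIH-3T3 mouse fibroblasts cultured with fluconazole at 8 µg/mL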
# [12] = test system: Streptococcus sp. 'group A'; test: Streptococcus pyogenes SK(-)GAS viability under kanamycin – luminescence, BacTiterGlo, confirmation, counter-screen for streptokinase expression inhibitor project, dose response (AID 1900); type: functional, organism-based
# [13] = rise of 2N DNA cells, HeLa – IC50, dose response (AID 1117349); type: functional, cell-based
# [14] = rise of 4N DNA cells, HeLa – IC50, dose response (AID 1117351); type: functional, cell-based
smiles,measurement,setting,value
COc1ccccc1NC(=O)N1CCCCN2[C@H](C1)[C@@H](c1ccc(-c3cccc(C#N)c3)cc1)[C@@H]2CO,AC50,[1],23.2 µM (active)
same,AC50,Paired box protein Pax-8,11.6 µM (active)
same,AC50,[2],> 70 µM (inactive)
O=C1NC(=O)N(c2ccccc2)C(=O)/C1=C/c1ccc([N+](=O)[O-])s1,AC50,Caspase-6,33.3 µM (active)
same,IC50,Large T antigen,59.3 µM (active)
same,AC50,[3],> 20 µM (inactive)
same,IC50,Genome polyprotein,20.4 µM (active)
same,IC50,[4],76.7 µM (inactive)
O=C(O)c1cccc(N2C(=O)c3ccc(C(=O)c4cccc([N+](=O)[O-])c4)cc3C2=O)c1,IC50,[5],> 67.5 µM (inactive)
same,EC50,[6],> 67.5 µM (inactive)
O=C(/C=C/c1cccs1)N1CCc2ccccc21,EC50,cells,> 67.5 µM (inactive)
same,EC50,[7],> 67.5 µM (inactive)
same,IC50,Protein skinhead-1,> 100 µM (inactive)
same,IC50,[5],> 67.5 µM (inactive)
same,EC50,[6],> 67.5 µM (inactive)
CC(C)(C)OC(=O)N(Cc1ccccc1)Cc1cccc(OCc2cccc(NC(=O)c3ccccc3)c2)c1,IC50,Protein Tat,> 100 µM (active)
same,CC50,[8],> 40 µM (active)
CC(=O)[C@]1(O)Cc2c(O)c3c(c(O)c2[C@@H](O[C@H]2C[C@H](N)[C@H](O)[C@H](C)O2)C1)C(=O)c1ccccc1C3=O [IDARUBICIN HYDROCHLORIDE],EC50,Streptokinase A,> 150 µM (not active)
same,EC50,[9],> 38 µM (not active)
same,EC50,[10],3.01 µM (inconclusive)
same,EC50,Streptococcus,2.6 µM (active)
same,EC50,[11],0.178 µM (inconclusive)
same,EC50,[12],1.07 µM (active)
same,IC50,[13],0.0111 µM (active)
same,IC50,[14],> 10 µM (inactive)
Fc1ccc(-c2nc3n(n2)Cc2ccccc2-3)cc1,EC50,cells,> 67.6 µM (inactive)
same,EC50,[7],> 67.6 µM (inactive)
same,IC50,[5],> 67.6 µM (inactive)
same,EC50,[6],> 67.6 µM (inactive)
CN(C)N=Nc1[nH]cnc1C(N)=O,AC50,Paired box protein Pax-8,5.34 µM (active)
same,IC50,[13],> 10 µM (inactive)
same,IC50,[14],> 10 µM (inactive)
